15 molecules from patent US8399497B2, “Thiazole derivatives and use thereof” (Merck Serono SA, priority 2005, dated 2013) can be followed below.

Sequence of Human recombinant GST-PI3Kγ (P48736 whole entry): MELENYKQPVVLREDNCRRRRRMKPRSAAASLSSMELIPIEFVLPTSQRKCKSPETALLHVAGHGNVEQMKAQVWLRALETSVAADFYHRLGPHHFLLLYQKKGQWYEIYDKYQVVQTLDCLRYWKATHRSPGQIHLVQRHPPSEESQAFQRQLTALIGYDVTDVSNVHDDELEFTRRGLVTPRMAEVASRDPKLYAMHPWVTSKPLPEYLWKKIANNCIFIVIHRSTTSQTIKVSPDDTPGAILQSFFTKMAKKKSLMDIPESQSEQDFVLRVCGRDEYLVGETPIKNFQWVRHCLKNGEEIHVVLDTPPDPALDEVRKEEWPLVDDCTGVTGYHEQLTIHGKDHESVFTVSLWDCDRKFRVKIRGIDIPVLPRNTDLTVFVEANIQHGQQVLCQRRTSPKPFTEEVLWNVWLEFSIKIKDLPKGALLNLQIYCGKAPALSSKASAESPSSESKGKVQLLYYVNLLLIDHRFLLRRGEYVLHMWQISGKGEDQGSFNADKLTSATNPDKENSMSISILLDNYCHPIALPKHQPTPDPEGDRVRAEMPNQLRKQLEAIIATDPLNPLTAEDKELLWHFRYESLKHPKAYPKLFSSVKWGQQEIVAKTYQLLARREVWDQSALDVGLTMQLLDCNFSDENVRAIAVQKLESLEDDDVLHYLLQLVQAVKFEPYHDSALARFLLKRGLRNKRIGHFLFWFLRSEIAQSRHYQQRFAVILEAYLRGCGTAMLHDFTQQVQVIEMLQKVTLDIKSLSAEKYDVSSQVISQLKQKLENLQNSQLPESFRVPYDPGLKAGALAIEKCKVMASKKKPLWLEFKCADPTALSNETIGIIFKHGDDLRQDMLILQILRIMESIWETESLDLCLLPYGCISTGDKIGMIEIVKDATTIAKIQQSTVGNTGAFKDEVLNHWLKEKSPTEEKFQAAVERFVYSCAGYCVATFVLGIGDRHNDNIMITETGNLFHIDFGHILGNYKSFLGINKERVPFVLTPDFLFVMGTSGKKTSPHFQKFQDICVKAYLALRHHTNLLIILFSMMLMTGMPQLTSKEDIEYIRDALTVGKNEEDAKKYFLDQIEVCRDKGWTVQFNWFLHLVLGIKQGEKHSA

The target of this test is Human recombinant GST-PI3Kγ (Homo sapiens, UniProt P48736). In words: High throughput PI3K lipid kinase assay (SPA, neomycin-coated beads). Type of test: biochemical. The text has this:
a) High Throughput PI3K Lipid Kinase Assay (Binding Assay):
The efficacy of compounds of the invention in inhibiting the PI3K induced-lipid phosphorylation may be tested in the following binding assay.
The assay combines the scintillation proximity assay technology (SPA, Amersham) with the capacity of neomycin (a polycationic antibiotic) to bind phospholipids with high affinity and specificity. The Scintillation Proximity Assay is based on the properties of weakly emitting isotopes (such as ^3H, ^125I, ^33P). Coating SPA beads with neomycin allows the detection of phosphorylated lipid substrates after incubation with recombinant PI3K and radioactive ATP in the same well, by capturing the radioactive phospholipids to the SPA beads through their specific binding to neomycin.
To a 384 wells MTP containing 5 μl of the test compound of Formula (I) (solubilized in 6% DMSO; to yield a concentration of 100, 30, 10, 3, 1, 0.3, 0.1, 0.03, 0.01, 01 μM of the test compound), the following assay components are added. 1) 5 μl (58 ng) of Human recombinant GST-PI3Kγ (in Hepes 40 mM, pH 7.4, DTT 1 mM and ethylenglycol 5%) 2) 10 μl of lipid micelles and 3) 10 μl of Kinase buffer ([^33P]γ-ATP 45 μM/60 nCi, MgCl2 30 mM, DTT 1 mM, β-Glycerophosphate 1 mM, Na3VO4 100 μM, Na Cholate 0.3%, in Hepes 40 mM, pH 7.4). After incubation at room temperature for 180 minutes, with gentle agitation, the reaction is stopped by addition of 60 μl of a solution containing 100 μg of neomycin-coated PVT SPA beads in PBS containing ATP 10 mM and EDTA 5 mM. The assay is further incubated at room temperature for 60 minutes with gentle agitation to allow binding of phospholipids to neomycin-SPA beads. After precipitation of the neomycin-coated PVT SPA beads for 5 minutes at 1500×g, radioactive PtdIns(3)P is quantified by scintillation counting in a Wallac MicroBeta™ plate counter.
The values indicated in Table II below refer to the IC50 (μM) with respect to PI3Kγ, i.e. the amount necessary to achieve 50% inhibition of said target. Said values show a considerable inhibitory potency of thiazole compounds with regard to PI3Kγ.
With `CC(=O)Nc1nc(C)c(-c2ccc(S(=O)(=O)N[C@@H](CO)C(=O)O)s2)s1` [Example 16, N-({5-[2-(acetylamino)-4-methyl-1,3-thiazol-5-yl]-2-thienyl}sulfonyl)serine], the IC50 stood at 373 nM.
The value for `CC(=O)Nc1nc(C)c(-c2csc(S(=O)(=O)N3CCNCC3)c2)s1` [Example 26, N-{4-methyl-5-[5-(piperazin-1-ylsulfonyl)-3-thienyl]-1,3-thiazol-2-yl}acetamide] was 67 nM; that for `CC(=O)Nc1nc(C)c(-c2csc(S(=O)(=O)NC3CCN(C)CC3)c2)s1` [Example 28, N-[4-methyl-5-(5-{[(1-methylpiperidin-4-yl)amino]sulfonyl}-3-thienyl)-1,3-thiazol-2-yl]acetamide] was 78 nM; that for `CC(=O)Nc1nc(C)c(-c2ccc(S(=O)(=O)N(C)CCN(C)C)s2)s1` [Example 5, N-[5-(5-{[[2-(dimethylamino)ethyl](methyl)amino]sulfonyl}-2-thienyl)-4-methyl-1,3-thiazol-2-yl]acetamide] was 20 nM.
In the case of `CC(=O)Nc1nc(C)c(-c2ccc(S(=O)(=O)N(C)C)s2)s1` [Example 18, N-(5-{5-[(dimethylamino)sulfonyl]-2-thienyl}-4-methyl-1,3-thiazol-2-yl)acetamide], the IC50 stood at 105 nM.
The result for `COC(=O)CCCC(=O)Nc1nc(C)c(-c2ccc(S(=O)(=O)NCCN3CCOCC3)s2)s1` [Example 7, methyl 5-{[4-methyl-5-(5-{[(2-morpholin-4-ylethyl)amino]sulfonyl}-2-thienyl)-1,3-thiazol-2-yl]amino}-5-oxopentanoate] reads 1200 nM.
Turning to `CC(=O)Nc1nc(C)c(-c2ccc(S(=O)(=O)N3CCN(C(C)=O)CC3)s2)s1` [Example 2, N-(5-{5-[(4-acetylpiperazin-1-yl)sulfonyl]-2-thienyl}-4-methyl-1,3-thiazol-2-yl)acetamide], the half-inhibitory concentration (IC50) turned out to be 396 nM.
Consider `CC(=O)Nc1nc(C)c(-c2ccc(S(=O)(=O)NCC(O)CO)s2)s1` (stereo not drawn) [Example 17, N-[5-(5-{[(2,3-dihydroxypropyl)amino]sulfonyl}-2-thienyl)-4-methyl-1,3-thiazol-2-yl]acetamide], for which the IC50 amounted to 71 nM.
The value for `CNC(=O)CNS(=O)(=O)c1ccc(-c2sc(NC(C)=O)nc2C)s1` [Example 12, N~2~-({5-[2-(acetylamino)-4-methyl-1,3-thiazol-5-yl]-2-thienyl}sulfonyl)-N~1~-methylglycinamide] was 522 nM; that for `CC(=O)NCCNS(=O)(=O)c1ccc(-c2sc(NC(C)=O)nc2C)s1` [Example 13, N-{5-[5-({[2-(acetylamino)ethyl]amino}sulfonyl)-2-thienyl]-4-methyl-1,3-thiazol-2-yl}acetamide] was 109 nM; that for `COC(=O)[C@H](CO)NS(=O)(=O)c1ccc(-c2sc(NC(C)=O)nc2C)s1` [Example 15, methyl N-({5-[2-(acetylamino)-4-methyl-1,3-thiazol-5-yl]-2-thienyl}sulfonyl)serinate] was 70 nM.
On to `CC(=O)Nc1nc(C)c(-c2csc(S(=O)(=O)NCCN3CCOCC3)c2)s1` [Example 24, N-[4-methyl-5-(5-{[(2-morpholin-4-ylethyl)amino]sulfonyl}-3-thienyl)-1,3-thiazol-2-yl]acetamide], for which the IC50 turned out to be 16 nM.
Take `CC(=O)Nc1nc(C)c(-c2ccc(S(=O)(=O)NCC3COC(C)(C)O3)s2)s1` (stereo not drawn) [Example 14, N-{5-[5-({[(2,2-dimethyl-1,3-dioxolan-4-yl)methyl]amino}sulfonyl)-2-thienyl]-4-methyl-1,3-thiazol-2-yl}acetamide]: the IC50 came out at 198 nM.
The value for `CC(=O)Nc1nc(C)c(-c2ccc(S(=O)(=O)N3CCNCC3)s2)s1` [Example 11, N-{4-methyl-5-[5-(piperazin-1-ylsulfonyl)-2-thienyl]-1,3-thiazol-2-yl}acetamide] was 200 nM; that for `CC(=O)Nc1nc(C)c(-c2ccc(S(=O)(=O)N3CCN(C)CC3)s2)s1` [Example 8, N-(4-methyl-5-{5-[(4-methylpiperazin-1-yl)sulfonyl]-2-thienyl}-1,3-thiazol-2-yl)acetamide] was 170 nM.
